Measurements taken from patent US10064889B2, “Mercapto-modified biocompatible macromolecule derivatives with low degree of mercapto-modification and the cross-linked materials and uses thereof” (Bioregen Biomedical (Changzhou) Co., Ltd., priority 2010, dated 2018).

Assay: Drug release from drug-containing disulfide-bond cross-linked hyaluronic acid hydrogel into phosphate buffer solution
Format: physicochemical
Details: 37° C., 100 rpm; for Cumulative release percentage of the drug: hydrogel 10 mg/ml hyaluronic acid, degree of mercapto-modification 3.97%
Method: In the preparation process of the disulfide-bond cross-linked hyaluronic acid hydrogel of Example 6 (having a concentration of hyaluronic acid of 10 mg/ml and a degree of mercapto-modification of 3.97%), 0.1-10 mg cortical hormones (e.g. Beclomethasone, Beclomethasone dipropionate, Budesonide, Dexamethasone, Prednisolone, and Prednisone) were added respectively to make the cortical hormones uniformly dispersed in the prepared cross-linked hydrogel.
10 ml phosphate buffer solution was added to 0.2 ml of the above drug-containing cross-linked hydrogel placed into a 15 ml plastic centrifugal tube. Then centrifugal tube was placed in a shaker (37° C., 100 rpm), and the ultraviolet absorption of the drugs in the supernatant was measured at regular intervals. The measurement wavelengths were as follows: Beclomethasone 246 nm, Beclomethasone dipropionate 240 nm, Budesonide 248 nm, Dexamethasone 242 nm, Prednisolone 248 nm, and Prednisone 244 nm.

## C[C@]12C=CC(=O)C=C1CC[C@@H]1[C@@H]2[C@@H](O)C[C@@]2(C)[C@H]1CC[C@]2(O)C(=O)CO [Prednisolone]
  Release behaviour from the hydrogel (in words): released basically completely in 7 days
7 days
  Cumulative release percentage of the drug: 95%
14 days
  Cumulative release percentage of the drug: 100%
21 days
  Cumulative release percentage of the drug: 100%

## CCC(=O)OCC(=O)[C@@]1(OC(=O)CC)[C@@H](C)C[C@H]2[C@@H]3CCC4=CC(=O)C=C[C@]4(C)[C@@]3(Cl)[C@@H](O)C[C@@]21C [Beclomethasone dipropionate]
  Release behaviour from the hydrogel (in words): release was rarely detected
7 days
  Cumulative release percentage of the drug: <1%
14 days
  Cumulative release percentage of the drug: <1%
21 days
  Cumulative release percentage of the drug: <1%

## C[C@H]1C[C@H]2[C@@H]3CCC4=CC(=O)C=C[C@]4(C)[C@@]3(Cl)[C@@H](O)C[C@]2(C)[C@@]1(O)C(=O)CO [Beclomethasone]
7 days
  Cumulative release percentage of the drug: 68%
14 days
  Cumulative release percentage of the drug: 87%
21 days
  Cumulative release percentage of the drug: 94%

## C[C@]12C=CC(=O)C=C1CC[C@@H]1[C@@H]2C(=O)C[C@@]2(C)[C@H]1CC[C@]2(O)C(=O)CO [Prednisone]
7 days
  Cumulative release percentage of the drug: 86%
14 days
  Cumulative release percentage of the drug: 99%
21 days
  Cumulative release percentage of the drug: 100%
